# Reference: ChEMBL document CHEMBL1777701, “Glucosides with cyclic diarylpolynoid as novel C-aryl glucoside SGLT2 inhibitors” (Bioorg Med Chem Lett, 2011)
# Molecular target: T1, Sodium/glucose cotransporter 2 (Homo sapiens, UniProt P31639)
# T1 sequence (P31639 whole entry): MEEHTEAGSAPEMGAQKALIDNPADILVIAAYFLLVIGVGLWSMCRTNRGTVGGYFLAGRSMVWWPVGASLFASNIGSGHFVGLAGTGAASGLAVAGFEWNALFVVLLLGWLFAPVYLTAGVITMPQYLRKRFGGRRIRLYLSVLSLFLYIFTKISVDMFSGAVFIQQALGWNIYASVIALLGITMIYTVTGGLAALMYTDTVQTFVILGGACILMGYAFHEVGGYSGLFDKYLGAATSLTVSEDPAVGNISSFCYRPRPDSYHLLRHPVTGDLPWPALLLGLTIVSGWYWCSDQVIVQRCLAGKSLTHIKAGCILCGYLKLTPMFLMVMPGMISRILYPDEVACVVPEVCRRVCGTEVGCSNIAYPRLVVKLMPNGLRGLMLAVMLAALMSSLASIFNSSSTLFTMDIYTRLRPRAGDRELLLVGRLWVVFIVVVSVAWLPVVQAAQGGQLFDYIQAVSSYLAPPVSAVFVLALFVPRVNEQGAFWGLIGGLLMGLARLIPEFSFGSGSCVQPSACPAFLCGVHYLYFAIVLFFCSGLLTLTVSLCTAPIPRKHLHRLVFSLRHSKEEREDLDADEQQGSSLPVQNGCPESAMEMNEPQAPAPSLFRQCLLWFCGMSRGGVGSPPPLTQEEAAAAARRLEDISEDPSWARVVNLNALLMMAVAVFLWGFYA
# Experiment: Inhibition of human SGLT2 expressed in CHO cells using methyl-alpha-D-glucopyranoside by liquid scintillation counting
# Assay type: cell-based
row,Compound,IC50
1,OC[C@H]1O[C@@H](c2ccc3c(c2)Cc2ccc(cc2)OCCCCCCC3)[C@H](O)[C@@H](O)[C@@H]1O,99.7 nM
2,OC[C@H]1O[C@@H](c2ccc3c(c2)Cc2ccc(cc2)OCCCCCC3)[C@H](O)[C@@H](O)[C@@H]1O,81.9 nM
3,OC[C@H]1O[C@@H](c2ccc3c(c2)Cc2ccc(cc2)OC/C=C/CCCC3)[C@H](O)[C@@H](O)[C@@H]1O,103 nM
4,OC[C@H]1O[C@@H](c2ccc3c(c2)Cc2ccc(cc2)OC/C=C/CCC3)[C@H](O)[C@@H](O)[C@@H]1O,89.6 nM
